Experimental data published in article PMC9804387, “Substrate Peptidomimetic Inhibitors of P. falciparum Plasmepsin X with Potent Antimalarial Activity” (Chemmedchem, 2022).
Several values for one entry are separate records, joined by “and”; a condition that tells them apart may be missing. Identical values can stand only once. Counter-ions that a name gives are not always drawn. Like-named read-outs stand apart in the source and are kept apart here.

Experiments:
recombinant Pf PMX = target: T1, recombinant Pf PMX (Plasmodium falciparum, UniProt Q8IAS0); experiment: PMX biochemical FRET assay (Rh2N fluorogenic substrate cleavage); conditions: 37 °C
T1 construct: made in house
Procedure: FRET Protease Assays. FRET protease assays were performed as previously described.[19, 20, 27, 28] Briefly, ten‐point 1 : 3‐fold dilution series of the compounds were prepared in 384‐well black low volume assay plates (Greiner) using an Echo555 (Labcyte). 10 mM compound stocks were transferred into assay plates such that the starting concentration was 90 μM (Pv PMV assays), 11.25 μM (renin, cathepsin D and BACE‐1 assays) or 100 nM and 10 μM (Pf PMX and Pf PMIX assays). All wells were backfilled to 200 nL DMSO such that the DMSO concentration remained constant across the assay plates (1 % final). All compound potency assays were conducted in 20 μL total volume. For each assay, 10 μL of recombinant enzymes in respective assay buffers (Table S2) were dispensed into compound containing assay plates using a Multidrop‐Combi dispenser and allowed to incubate for 15 min. Recombinant Pf PMX, Pf PMIX and Pv PMV were expressed as previously described,[23, 27, 28] and recombinant human aspartyl proteases were purchased commercially. 10 μL of the fluorogenic peptide substrates incubated at 37 °C for the duration and conditions noted in Table S2. Samples were excited at 340 nm and fluorescence emission measured at 492 nm using an Envision fluorescence plate reader (Perkin‐Elmer). The 0 % inhibition control contained DMSO alone (1 % final) and the 100 % inhibition control was in the absence of enzyme. […]
(§1) Table S2 . P rotease FRET assay conditions.
(§2) PMX as sa y PMIX PM V assay Renin assay Cathepsin D assay BA CE-1 assay E nzy me prot e as e 0.25 nM pro te a se 6 nM prot e as e q ua nti ty 0.1 nM pro t ea se 1.5 nM pro t ea se 2.5 nM pro t ea se 3 nM (Pro te os #R-001) ( Athe ns Re sea rc h (Sigma #S4195) […]
(§3) 25mM so di um acetate, 100 mM 25 mM M E S, 25 m M 50 mM Tr is, 100 mM 100 mM so di u m 20 mM so dium Buffer acetate, 0.005% sodium chloride and Tris-HCl, 0.01% N aC l, 0. 1% Bri j-35, acetate 0.02% scetate, 0.05% […]
(§4) Sub str at e DABCYL- ( DA BC YL ) - DABCYL- DABCYL-(γ- Ab u) - E[E(EDANS)]KPIL […]

[1] = system: P. falciparum (Pf) 3D7 parasites; experiment: P. falciparum LDH viability assay; format: cell-based; conditions: for EC50: Plasmodium falciparum, 3D7, 72 h, LDH activity, 72 h at 37 °C, mean and SD of 3 independent experiments; for fold decrease in parasite activity compared to PMX inhibition: Pf 3D7 EC50 versus PMX IC50
Procedure: P. falciparum LDH Viability Assay. P. falciparum LDH viability assays were performed as previously described.[40] Briefly, a ten‐point 1 : 3‐fold dilution series of the compounds were pre‐dispensed in 384‐well assay plates (Grenier), and RPMI/AlbuMAX growth media inoculated with synchronized ring stage P. falciparum parasites. 10 mM compound stocks were transferred into the assay plates such that the starting concentration was 10 μM. Plates were incubated for 72 h and then frozen at −80 °C overnight. Lactate dehydrogenase (LDH) activity was quantified with APAD by measuring absorbance of NBT at 650 nm. Data were normalized to percent growth inhibition using the positive control of 0.1 % DMSO alone and the negative control of 100 nM chloroquine. Half‐maximal effective concentration (EC50) values were calculated by GraphPad Prism (8.0.2) software using a nonlinear regression four‐parameter fit analysis using a sigmoidal dose response (variable slope).

in vitro = format: cell-based; conditions: human
Procedure: HepG2 Cytotoxicity Assay. HepG2 cytotoxicity assays were performed as previously described.[41] Briefly, human hepatocyte HepG2 cells were cultured in DMEM supplemented with 10 % FCS at 37 °C and 5 % CO2 in a humidified incubator. Cells were seeded at 1000 cells/well in 50 μL in 384‐well plates (Grenier) and compounds incubated in ten‐point 1 : 2‐fold dilution series for 48 h. Cytotoxicity was determined using Cell Titer‐Glo (Promega), normalized to DMSO alone controls (100 % viability) and control compound Bortezomib (0 % viability at 10 μM). CC50 values were calculated by GraphPad Prism (8.0.2) software using a nonlinear regression four‐parameter fit analysis with the sigmoidal dose response (variable slope).

recombinant Pf PMIX = target: T2, recombinant Pf PMIX (Plasmodium falciparum, UniProt Q8ILG2); experiment: PMIX FRET protease assay; format: biochemical, P. falciparum; conditions: mean and SD of 4 replicate FRET experiments, 37 °C
T2 construct: made in house
Procedure: (§5) FRET Protease Assays. FRET protease assays were performed as previously described.[19, 20, 27, 28] Briefly, ten‐point 1 : 3‐fold dilution series of the compounds were prepared in 384‐well black low volume assay plates (Greiner) using an Echo555 (Labcyte). 10 mM compound stocks were transferred into assay plates such that the starting concentration was 90 μM (Pv PMV assays), 11.25 μM (renin, cathepsin D and BACE‐1 assays) or 100 nM and 10 μM (Pf PMX and Pf PMIX assays). All wells were backfilled to 200 nL DMSO such that the DMSO concentration remained constant across the assay plates (1 % final). All compound potency assays were conducted in 20 μL total volume. For each assay, 10 μL of recombinant enzymes in respective assay buffers (Table S2) were dispensed into compound containing assay plates using a Multidrop‐Combi dispenser and allowed to incubate for 15 min. Recombinant Pf PMX, Pf PMIX and Pv PMV were expressed as previously described,[23, 27, 28] and recombinant human aspartyl proteases were purchased commercially. 10 μL of the fluorogenic peptide substrates incubated at 37 °C for the duration and conditions noted in Table S2. Samples were excited at 340 nm and fluorescence emission measured at 492 nm using an Envision fluorescence plate reader (Perkin‐Elmer). The 0 % inhibition control contained DMSO alone (1 % final) and the 100 % inhibition control was in the absence of enzyme. Half‐maximal inhibitory concentration (IC50) values were calculated by GraphPad Prism (8.0.2) software using a nonlinear regression four‐parameter fit analysis using a sigmoidal dose response (variable slope).
as §1, §2, §3, §4

cathepsin D = target: T3, cathepsin D (Homo sapiens, UniProt P07339); experiment: Cathepsin D FRET protease assay; format: biochemical; conditions: mean and SD of 4 replicate FRET experiments, 37 °C; highest concentration tested 11 μM
T3 construct: purchased Athens Research 16-12-030104

recombinant Pv PMV = target: T4, recombinant Pv PMV (Plasmodium vivax, UniProt A5K302); experiment: PMV FRET protease assay; format: biochemical
T4 construct: made in house
Procedure: as §5, §1, §2, §3, §4

renin = target: T5, renin (Homo sapiens, UniProt P00797); experiment: Renin FRET protease assay; format: biochemical; conditions: mean and SD of 4 replicate FRET experiments, 37 °C; highest concentration tested 11 μM
T5 construct: purchased Proteos R-001
T5 sequence (P00797 67-406): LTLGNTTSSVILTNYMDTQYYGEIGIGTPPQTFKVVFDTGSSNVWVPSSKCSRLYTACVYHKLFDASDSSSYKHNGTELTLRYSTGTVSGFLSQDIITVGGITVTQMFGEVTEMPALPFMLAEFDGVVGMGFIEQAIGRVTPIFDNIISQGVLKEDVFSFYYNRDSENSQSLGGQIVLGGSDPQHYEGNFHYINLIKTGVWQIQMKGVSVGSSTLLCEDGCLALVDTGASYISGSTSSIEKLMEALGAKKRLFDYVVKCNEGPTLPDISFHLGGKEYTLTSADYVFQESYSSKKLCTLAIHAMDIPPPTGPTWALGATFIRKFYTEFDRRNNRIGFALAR

BACE‐1 = target: T6, BACE‐1 (Homo sapiens, UniProt P56817); experiment: BACE-1 FRET protease assay; format: biochemical; conditions: mean and SD of 4 replicate FRET experiments, 37 °C; highest concentration tested 11 μM
T6 construct: purchased Sigma S4195

[2] = recombinant PMX, fluorogenic substrate (Rh2N) cleavage, 4 h, mean and SD of 4 replicates (Tables 1, 2)

T1 sequence (Q8IAS0 222-573): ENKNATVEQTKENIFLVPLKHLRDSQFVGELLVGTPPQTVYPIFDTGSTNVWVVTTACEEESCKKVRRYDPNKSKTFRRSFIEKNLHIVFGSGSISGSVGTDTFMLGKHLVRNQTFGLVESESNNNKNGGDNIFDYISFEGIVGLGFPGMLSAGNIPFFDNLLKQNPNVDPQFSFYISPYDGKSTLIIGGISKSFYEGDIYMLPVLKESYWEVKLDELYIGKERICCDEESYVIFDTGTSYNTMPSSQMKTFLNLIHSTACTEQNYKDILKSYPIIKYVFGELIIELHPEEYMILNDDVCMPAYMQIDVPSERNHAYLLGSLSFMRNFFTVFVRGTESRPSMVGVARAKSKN
T4 sequence (A5K302 35-536): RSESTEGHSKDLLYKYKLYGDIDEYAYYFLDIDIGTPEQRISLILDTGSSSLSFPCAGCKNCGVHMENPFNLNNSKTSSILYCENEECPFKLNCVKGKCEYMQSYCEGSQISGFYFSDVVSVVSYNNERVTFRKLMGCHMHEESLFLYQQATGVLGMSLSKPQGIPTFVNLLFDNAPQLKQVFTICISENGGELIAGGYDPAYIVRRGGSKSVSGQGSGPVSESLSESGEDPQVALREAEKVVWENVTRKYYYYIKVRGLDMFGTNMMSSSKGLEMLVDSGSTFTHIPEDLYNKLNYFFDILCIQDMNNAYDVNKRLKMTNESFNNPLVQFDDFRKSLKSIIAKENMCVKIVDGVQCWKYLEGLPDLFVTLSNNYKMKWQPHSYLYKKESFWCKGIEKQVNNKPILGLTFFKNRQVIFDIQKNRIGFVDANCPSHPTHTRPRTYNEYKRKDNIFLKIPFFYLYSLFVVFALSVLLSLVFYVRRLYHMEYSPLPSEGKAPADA
T2 sequence (Q8ILG2 whole entry): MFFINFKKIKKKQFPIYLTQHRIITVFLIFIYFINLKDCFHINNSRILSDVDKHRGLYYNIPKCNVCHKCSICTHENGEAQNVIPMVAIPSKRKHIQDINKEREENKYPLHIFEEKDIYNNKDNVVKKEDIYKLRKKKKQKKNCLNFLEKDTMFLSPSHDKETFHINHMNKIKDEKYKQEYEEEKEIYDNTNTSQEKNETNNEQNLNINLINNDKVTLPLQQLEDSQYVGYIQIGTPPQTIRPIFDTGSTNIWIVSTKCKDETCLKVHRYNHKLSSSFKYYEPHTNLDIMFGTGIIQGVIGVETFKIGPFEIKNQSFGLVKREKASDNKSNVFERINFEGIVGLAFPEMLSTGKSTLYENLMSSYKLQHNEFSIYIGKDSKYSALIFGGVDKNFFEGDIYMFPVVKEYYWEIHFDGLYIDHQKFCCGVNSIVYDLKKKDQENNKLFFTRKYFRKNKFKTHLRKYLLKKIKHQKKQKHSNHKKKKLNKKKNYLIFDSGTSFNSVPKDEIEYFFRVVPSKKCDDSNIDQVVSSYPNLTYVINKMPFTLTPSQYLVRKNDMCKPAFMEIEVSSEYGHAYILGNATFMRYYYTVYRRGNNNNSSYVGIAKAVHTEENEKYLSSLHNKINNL
T3 sequence (P07339 65-412): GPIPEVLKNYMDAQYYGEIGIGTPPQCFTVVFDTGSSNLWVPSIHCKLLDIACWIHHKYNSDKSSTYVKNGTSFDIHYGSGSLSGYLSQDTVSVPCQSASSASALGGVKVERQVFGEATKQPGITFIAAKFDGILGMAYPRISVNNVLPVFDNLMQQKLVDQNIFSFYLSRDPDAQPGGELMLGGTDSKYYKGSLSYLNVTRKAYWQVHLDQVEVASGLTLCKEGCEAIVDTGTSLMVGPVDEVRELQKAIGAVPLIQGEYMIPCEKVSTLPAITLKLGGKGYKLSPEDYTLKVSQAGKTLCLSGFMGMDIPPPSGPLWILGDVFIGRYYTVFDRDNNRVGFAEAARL
T6 sequence (P56817 46-460 limits assumed): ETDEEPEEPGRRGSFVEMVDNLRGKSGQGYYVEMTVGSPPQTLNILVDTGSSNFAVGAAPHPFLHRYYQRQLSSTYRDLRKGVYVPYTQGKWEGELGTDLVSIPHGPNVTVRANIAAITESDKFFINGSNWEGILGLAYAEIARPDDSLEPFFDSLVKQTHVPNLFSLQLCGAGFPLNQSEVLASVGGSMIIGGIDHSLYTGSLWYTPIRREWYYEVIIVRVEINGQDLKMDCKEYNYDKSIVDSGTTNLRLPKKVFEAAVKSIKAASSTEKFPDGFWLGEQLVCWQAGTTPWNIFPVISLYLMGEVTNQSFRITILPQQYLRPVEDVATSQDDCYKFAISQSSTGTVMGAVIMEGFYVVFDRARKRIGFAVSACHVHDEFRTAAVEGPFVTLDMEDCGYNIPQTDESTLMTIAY

IC50 (recombinant Pf PMX; [2]) | EC50 [1] [µM] | Structure (SMILES) | CC50 at 48 h (in vitro) [µM] | IC50 (recombinant Pf PMIX) [µM] | IC50 (cathepsin D) [µM] | IC50 (recombinant Pv PMV) [µM] | IC50 (renin) [µM] | IC50 (recombinant Pf PMX; Table 3, mean and SD of 4 replicate FRET experiments) [µM] | IC50 (BACE‐1) [µM] | fold decrease in parasite activity compared to PMX inhibition [1] | IC50 (recombinant Pv PMV; Table S2, positive control activity in assay, 90 min, read-out: Positive control IC50 in PMV assay) [µM]
< 1 µM and 0.2 µM | 1.6 | CC(C)CC(NC(=O)C(CO)NC(=O)OCc1ccccc1)C(=O)NC(Cc1ccccc1)C(O)CNC(C)c1ccccc1 (stereo not shown) [Compd 24, Cbz‐Ser‐Leu‐Phe‐HEA‐Bn(CH3)⋅TFA] | > 40 | – | – | – | – | – | – | – | –
> 1 µM and 3.5 µM | > 11 | CC(C)CC(NC(=O)C(CO)NC(=O)OCc1ccccc1)C(=O)NC(CC(C)C)C(O)CNC(C)c1ccccc1 (stereo not shown) [Compd 25, Cbz‐Ser‐Leu‐Leu‐HEA‐Bn(CH3)⋅TFA] | > 40 | – | – | – | – | – | – | – | –
0.58 µM | > 11 | CC(=O)NC(CO)C(=O)NC(CO)C(=O)NC(Cc1ccccc1)C(O)CNC(C)c1ccccc1 (stereo not shown) [Compd 28, Ac‐Ser‐Ser‐Phe‐HEA‐Bn(CH3)⋅TFA] | > 40 | – | – | – | – | – | – | approximately 10 fold | –
0.58 µM | 6.7 | CC(=O)NC(CC(N)=O)C(=O)NC(CO)C(=O)NC(Cc1ccccc1)C(O)CNC(C)c1ccccc1 (stereo not shown) [Compd 27, Ac‐Asn‐Ser‐Phe‐HEA‐Bn(CH3)⋅TFA] | > 40 | – | – | – | – | – | – | approximately 10 fold | –
> 1 µM and 3.6 µM | 6 | CC(C)CC(NC(=O)C(Cc1ccccc1)NC(=O)C(CO)NC(=O)OCc1ccccc1)C(O)CNC(C)c1ccccc1 (stereo not shown) [Compd 23, Cbz‐Ser‐Phe‐Leu‐HEA‐Bn(CH3)⋅TFA] | 30 | – | – | – | – | – | – | – | –
– | – | CC(C)C[C@H](NC(=O)[C@@H](NC(=O)[C@H](CCON=C(N)N)NC(=O)OCc1ccccc1)C(C)C)[C@@H](O)CC(=O)NCCc1ccccc1 [WEHI-842, reference compound] | – | – | – | – | – | – | – | – | 0.017
0.16 µM | 0.26 | CC(O)[C@H](NC(=O)OCc1ccccc1)C(=O)N[C@@H](Cc1ccccc1)[C@H](O)CN[C@H](C)c1ccccc1 (stereo partly shown) [Compd 42, Cbz‐Thr‐Phe‐HEA‐Bn(CH3)⋅TFA] | > 40 | – | – | – | – | – | – | 2 fold | –

Structure (SMILES) | IC50 (recombinant Pf PMX; [2]) | EC50 [1] [µM] | CC50 at 48 h (in vitro) [µM] | IC50 (recombinant Pf PMIX) [µM] | IC50 (cathepsin D) [µM] | IC50 (recombinant Pv PMV) [µM] | IC50 (renin) [µM] | IC50 (recombinant Pf PMX; Table 3, mean and SD of 4 replicate FRET experiments) [µM] | IC50 (BACE‐1) [µM] | fold decrease in parasite activity compared to PMX inhibition [1] | IC50 (recombinant Pv PMV; Table S2, positive control activity in assay, 90 min, read-out: Positive control IC50 in PMV assay) [µM]
CC(C)[C@H](NC(=O)OCc1ccccc1)C(=O)N[C@@H](Cc1ccccc1)[C@H](O)CN[C@H](C)c1ccccc1 [Compd 34, Cbz‐Val‐Phe‐HEA‐Bn(CH3)] | 0.01 µM | 0.05 | 13 | 6.9 | > 11 | > 90 | > 11 | 0.01 | > 11 | – | –
